GI50 and TGI data for 8 compounds are collected here from PubChem BioAssay (NCI).

Where “and” joins values, the source holds several entries; their conditions need not be identical. Equal values may be shown once.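 Test compounds were applied to cells in 96-well plates for 48 hours at 5 doses. The concentration for 50% growth inhibition is given as GI50. At the TGI there is no net growth.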 Some results are limits rather than exact numbers.

Among the test systems are A498 renal; A549 NSCLC; HCT-116 colon; HCT-15 colon; HS 578T breast; K-562 leukemia; NCI-H226 lung; RPMI-8226 leukemia; SK-MEL-5 melanoma; UACC-257 melanoma.
Experiment in all cases: NCI anticancer screen, dose series, 48 h

For `NC(=O)c1ccc(Oc2nccc(-c3c(-c4ccc(F)cc4)ncn3C3CCNCC3)n2)cc1`, the GI50 with A498 renal is > 18.2 µM; in the assay on A549 NSCLC, > 25 µM; with HCT-116 colon, > 25 µM; with HCT-15 colon, > 25 µM; in the assay on HS 578T breast, > 9.72 µM; in the assay with K-562 leukemia it was > 25 µM. The GI50 in the assay with NCI-H226 lung, with RPMI-8226 leukemia, in the assay on SK-MEL-5 melanoma and in the assay on UACC-257 melanoma was > 25 µM each time. The TGI in the assay with A498 renal, in the assay with A549 NSCLC, in the assay on HCT-116 colon, in the assay on HCT-15 colon, in the assay with HS 578T breast and with K-562 leukemia was > 25 µM in each case. Also, the TGI in the assay on NCI-H226 lung, in the assay with RPMI-8226 leukemia, in the assay with SK-MEL-5 melanoma and in the assay on UACC-257 melanoma was > 25 µM in each case.

Regarding `Cc1c(C#N)cccc1[C@@H](C)Nc1nnc(C)c2cnc(N3CCOCC3)cc12`, the GI50 in the assay on A498 renal is 2.72 µM; with A549 NSCLC, 36.2 µM; in the assay on HCT-116 colon, 32.7 µM; in the assay on HCT-15 colon, 31.4 µM; in the assay on HS 578T breast, 12.2 µM; in the assay on K-562 leukemia, 0.367 µM. The GI50 with NCI-H226 lung was 23.2 µM; with RPMI-8226 leukemia, 25.8 µM; with SK-MEL-5 melanoma it was 10.1 µM; with UACC-257 melanoma, 26.4 µM. The TGI is > 100 µM in the assay with A498 renal; > 100 µM in the assay with A549 NSCLC; > 100 µM with HCT-116 colon; > 100 µM in the assay with HCT-15 colon; 66.6 µM with HS 578T breast; > 100 µM with K-562 leukemia. Besides, the TGI is > 100 µM with NCI-H226 lung, > 100 µM in the assay with RPMI-8226 leukemia, 21.9 µM in the assay on SK-MEL-5 melanoma and 94.5 µM in the assay on UACC-257 melanoma.

For `CNCCCNc1nc2ccccc2c2c(=O)c3cc(OC)ccc3sc12`, the GI50 with A498 renal is 2.25 µM; with A549 NSCLC, 1.84 µM; in the assay on HCT-116 colon it was 1.78 µM; in the assay with HCT-15 colon it was 1.52 µM; in the assay on HS 578T breast it was 1.94 µM; in the assay with K-562 leukemia, 2 µM. Also, the GI50 in the assay on NCI-H226 lung was 1.8 µM; with RPMI-8226 leukemia, 2.22 µM; with SK-MEL-5 melanoma it was 1.72 µM; in the assay with UACC-257 melanoma, 1.99 µM. In addition, the TGI in the assay with A498 renal stood at 8.72 µM; in the assay on A549 NSCLC, 3.82 µM; in the assay on HCT-116 colon, 3.52 µM; in the assay on HCT-15 colon, 2.95 µM; with HS 578T breast, 4.77 µM; with K-562 leukemia, 5.38 µM. Besides, the TGI in the assay with NCI-H226 lung came to 3.9 µM; with RPMI-8226 leukemia, 5.16 µM; in the assay with SK-MEL-5 melanoma it was 3.13 µM; in the assay with UACC-257 melanoma, 4.15 µM.

Regarding `CCCCCCSSC(=S)N(CC)CC`, the GI50 in the assay with A498 renal was 70 µM; in the assay on A549 NSCLC, 32.4 µM; in the assay with HCT-116 colon, 14.4 µM; in the assay on HCT-15 colon, 28.4 µM; with HS 578T breast it was 28.3 µM; in the assay with K-562 leukemia, 14.7 µM. The GI50 in the assay with NCI-H226 lung was 35.4 µM; with RPMI-8226 leukemia, 18.8 µM; in the assay on SK-MEL-5 melanoma it was 14.6 µM; in the assay on UACC-257 melanoma, 48.3 µM. Further, the TGI is > 100 µM with A498 renal; 98.6 µM with A549 NSCLC; 28.5 µM with HCT-116 colon; > 100 µM with HCT-15 colon; > 100 µM in the assay with HS 578T breast; 39.5 µM in the assay on K-562 leukemia. For the same compound, the TGI in the assay on NCI-H226 lung is > 100 µM; in the assay with RPMI-8226 leukemia, > 100 µM; in the assay on SK-MEL-5 melanoma, 31.6 µM; with UACC-257 melanoma it was > 100 µM.

As to `Cc1cc(-c2c(F)cc3c4nn([C@H]5CC[C@@H](N(C)C)CC5)c(=O)c-4cn(C4CC4)c3c2F)cc(C)n1`, the GI50 in the assay with A498 renal was 0.141 µM; in the assay with HCT-116 colon it was 0.0391 µM; in the assay with K-562 leukemia it was 0.164 µM; in the assay with NCI-H226 lung, 0.0368 µM; in the assay on RPMI-8226 leukemia it was 0.0294 µM. The TGI is 0.0558 µM and 0.471 µM in the assay with A498 renal; 0.356 µM and 1.27 µM in the assay on HCT-116 colon; 6.25 µM in the assay on HS 578T breast; 0.118 µM and 0.586 µM in the assay on NCI-H226 lung; 0.982 µM in the assay on SK-MEL-5 melanoma; 5.77 µM in the assay with UACC-257 melanoma.

In the case of `COc1ccccc1S(=O)(=O)Nc1ccc2c3c(cc(CCC(=O)NCCCCNc4cccc5c4C(=O)N(C4CCC(=O)NC4=O)C5=O)cc13)C(=O)N2C` (centres undefined), the GI50 is 0.659 µM in the assay on A498 renal; 5.73 µM in the assay on A549 NSCLC; 3.06 µM with HCT-116 colon; 0.186 µM with HS 578T breast; 0.443 µM in the assay on K-562 leukemia; 0.456 µM in the assay on NCI-H226 lung. Besides, the GI50 in the assay on RPMI-8226 leukemia is 0.625 µM; with SK-MEL-5 melanoma it was 0.982 µM; with UACC-257 melanoma, > 100 µM. Besides, the TGI in the assay on A498 renal was 6.08 µM; in the assay with A549 NSCLC, > 100 µM; in the assay on HCT-116 colon it was > 100 µM; with HS 578T breast, 1.1 µM; with K-562 leukemia it was > 100 µM; in the assay on NCI-H226 lung it was 4.79 µM. Besides, the TGI was > 100 µM in the assay on RPMI-8226 leukemia, 3.32 µM in the assay with SK-MEL-5 melanoma and > 100 µM with UACC-257 melanoma.

In the case of `COC(=O)Nc1nc2ccccc2[nH]1`, the TGI is > 100 µM in the assay with A498 renal; > 100 µM in the assay with A549 NSCLC; > 100 µM in the assay with HCT-116 colon; > 100 µM in the assay with HCT-15 colon; > 95.4 µM with HS 578T breast; > 100 µM in the assay on K-562 leukemia. Moreover, the TGI in the assay on NCI-H226 lung, with RPMI-8226 leukemia, with SK-MEL-5 melanoma and in the assay with UACC-257 melanoma was > 100 µM each time.

`CCCCC#Cc1c(I)n(C)c(=O)[nH]c1=O`: the GI50 with A498 renal was 18.7 µM; with A549 NSCLC, 19.3 µM; in the assay on HCT-116 colon it was 1.7 µM; in the assay with HCT-15 colon it was 1.52 µM; with HS 578T breast, 2.61 µM; with K-562 leukemia, 1.82 µM. Besides, the GI50 in the assay with NCI-H226 lung was 14.4 µM; with RPMI-8226 leukemia it was 2.37 µM; in the assay on SK-MEL-5 melanoma, 16.4 µM; in the assay on UACC-257 melanoma, 2.46 µM. Moreover, the TGI with A498 renal came out at 32.7 µM; with A549 NSCLC it was 34.9 µM; in the assay with HCT-116 colon, 3.07 µM; with HCT-15 colon, 2.87 µM; in the assay with HS 578T breast, 7.16 µM; in the assay with K-562 leukemia, 3.46 µM. Moreover, the TGI with NCI-H226 lung came to 27.4 µM; in the assay on RPMI-8226 leukemia, 8.41 µM; in the assay with SK-MEL-5 melanoma it was 30 µM; in the assay with UACC-257 melanoma it was 5.5 µM.
